Experimental data from patent publication US9527856B2, “Oxindole compounds carrying a CO-bound spiro substituent and use thereof for treating vasopressin-related diseases” (AbbVie Deutschland GmbH & Co. KG, priority 2014, dated 2016).

Assays:
[1] = target: T1, human vasopressin V1b receptor (Homo sapiens, UniProt P47901); assay: biochemical; conditions: Ki(h-V1b)* [nM], CHO-K1 cell membranes, displacement of 3H-AVP
T1 sequence (P47901 1-424): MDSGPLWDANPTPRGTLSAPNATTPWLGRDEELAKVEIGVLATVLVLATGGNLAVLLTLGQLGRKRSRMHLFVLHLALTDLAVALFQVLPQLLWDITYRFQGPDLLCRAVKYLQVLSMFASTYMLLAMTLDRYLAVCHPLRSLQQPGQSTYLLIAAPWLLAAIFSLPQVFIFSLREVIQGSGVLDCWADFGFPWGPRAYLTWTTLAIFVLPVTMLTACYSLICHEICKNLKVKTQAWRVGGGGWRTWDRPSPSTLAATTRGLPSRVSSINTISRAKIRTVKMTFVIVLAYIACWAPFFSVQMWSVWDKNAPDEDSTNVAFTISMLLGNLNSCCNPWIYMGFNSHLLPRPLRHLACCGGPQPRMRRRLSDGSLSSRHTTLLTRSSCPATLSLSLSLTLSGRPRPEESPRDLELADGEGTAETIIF

[2] = target: human vasopressin V1a receptor (Homo sapiens, UniProt P37288); assay: Vasopressin V1a receptor binding assay; conditions: selectivity for human V1b over human V1a, quotient of binding constants
Chain of human vasopressin V1a receptor (P37288 whole entry): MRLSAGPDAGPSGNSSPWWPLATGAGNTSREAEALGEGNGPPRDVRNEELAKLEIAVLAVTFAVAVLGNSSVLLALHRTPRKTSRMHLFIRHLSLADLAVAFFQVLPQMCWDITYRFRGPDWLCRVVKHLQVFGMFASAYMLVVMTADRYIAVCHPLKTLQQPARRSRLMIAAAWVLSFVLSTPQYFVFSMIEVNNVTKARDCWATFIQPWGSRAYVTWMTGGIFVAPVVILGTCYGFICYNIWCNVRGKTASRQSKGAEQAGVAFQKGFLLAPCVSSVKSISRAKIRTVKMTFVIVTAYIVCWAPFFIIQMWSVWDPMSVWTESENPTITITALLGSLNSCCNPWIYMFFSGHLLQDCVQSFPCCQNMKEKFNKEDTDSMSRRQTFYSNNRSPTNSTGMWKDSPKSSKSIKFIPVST

Row | SMILES | Ki [1] [nM] | Ki(h-V1a)/Ki(h-V1b) [2]
1 | CCOc1ccccc1[C@]1(NC(=O)N2CC3(C2)CN(C2CCN(C(C)C)CC2)C3)C(=O)N(S(=O)(=O)c2ccc(C#N)cc2)c2ccc(C#N)cc21 [Example 42, N-[(3S)-5-Cyano-1-(4-cyanophenyl)sulfonyl-3-(2-ethoxyphenyl)-2-oxo-indolin-3-yl]-2-(1-isopropyl-4-piperidyl)-2,6-diazaspiro[3.3]heptane-6-carboxamide] | 10 to 100 | +++ (>75)
2 | CCOc1ncccc1[C@]1(NC(=O)N2CC3(CN(CCCN4CCOCC4)C3)C2)C(=O)N(S(=O)(=O)c2ccc(OC)cc2)c2ccc(C#N)cc21 [Example 2, N-[(3S)-5-Cyano-3-(2-ethoxy-3-pyridyl)-1-(4-methoxyphenyl)sulfonyl-2-oxo-indolin-3-yl]-2-(3-morpholinopropyl)-2,6-diazaspiro[3.3]heptane-6-carboxamide] | 10 to 100 | +++ (>75)
3 | CCOc1ncccc1[C@]1(NC(=O)N2CC3(CN(CCN4CCOCC4)C3)C2)C(=O)N(S(=O)(=O)c2ccc(OC)cc2OC)c2ccc(C#N)cc21 [Example 15, N-[(3S)-5-Cyano-1-(2,4-dimethoxyphenyl)sulfonyl-3-(2-ethoxy-3-pyridyl)-2-oxo-indolin-3-yl]-2-(2-morpholinoethyl)-2,6-diazaspiro[3.3]heptane-6-carboxamide] | < 1 | +++ (>75)
4 | CCOc1ncccc1C1(NC(=O)N2CC3(C2)CN(C2CCN(C(C)C)CC2)C3)C(=O)N(S(=O)(=O)c2ccc(OC)cc2OC)c2ccc(C#N)cc21 (racemic) [Example 22, (±)-N-[5-Cyano-1-(2,4-dimethoxyphenyl)sulfonyl-3-(2-ethoxy-3-pyridyl)-2-oxo-indolin-3-yl]-2-(1-isopropyl-4-piperidyl)-2,6-diazaspiro[3.3]heptane-6-carboxamide] | 1 to 10 | +++ (>75)
5 | CCOc1ccccc1[C@]1(NC(=O)N2CC3(C2)CN(C2CCN(C4COC4)CC2)C3)C(=O)N(S(=O)(=O)c2ccc(OC)cc2)c2ccc(C#N)cc21.O=C(O)C(F)(F)F [Example 35B, N-[(3S)-5-Cyano-3-(2-ethoxyphenyl)-1-(4-methoxyphenyl)sulfonyl-2-oxo-indolin-3-yl]-2-[1-(oxetan-3-yl)-4-piperidyl]-2,6-diazaspiro[3.3]heptane-6-carboxamide; 2,2,2-trifluoroacetic acid] | 10 to 100 | ++ (25-75)
6 | CCOc1ncccc1[C@]1(NC(=O)N2CC3(CC(OCCN4CCOCC4)C3)C2)C(=O)N(S(=O)(=O)c2ccc(OC)cc2)c2ccc(C#N)cc21 [Example 21A, N-[(3S)-5-Cyano-3-(2-ethoxy-3-pyridyl)-1-(4-methoxyphenyl)sulfonyl-2-oxo-indolin-3-yl]-2-(2-morpholinoethoxy)-6-azaspiro[3.3]heptane-6-carboxamide] | 10 to 100 | +++ (>75)
7 | CCOc1ncccc1C1(NC(=O)N2CC3(CCNCC3)C2)C(=O)N(S(=O)(=O)c2ccc(OC)cc2OC)c2ccc(C#N)cc21.O=C(O)C(F)(F)F (stereo not shown) [Example 60, N-(5-Cyano-1-(2,4-dimethoxyphenylsulfonyl)-3-(2-ethoxypyridin-3-yl)-2-oxoindolin-3-yl)-2,7-diazaspiro[3.5]nonane-2-carboxamide 2,2,2-trifluoroacetate] | 1 to 10 | ++ (25-75)
8 | CCOc1ncccc1[C@]1(NC(=O)N2CC3(CN(CCN4CCOCC4)C3)C2)C(=O)N(S(=O)(=O)c2ccc(OC)cc2)c2ccc(C#N)cc21.O=C(O)C(F)(F)F [Example 1B, N-[(3S)-5-cyano-3-(2-ethoxy-3-pyridyl)-1-(4-methoxyphenyl)sulfonyl-2-oxo-indolin-3-yl]-2-(2-morpholinoethyl)-2,6-diazaspiro[3.3]heptane-6-carboxamide; 2,2,2-trifluoroacetic acid] | < 1 | +++ (>75)
9 | CCOc1ncccc1[C@]1(NC(=O)N2CC3(CN(CCN4CCOCC4)C3)C2)C(=O)N(S(=O)(=O)c2ccc(C)cc2)c2ccc(C#N)cc21.O=C(O)C(F)(F)F [Example 10, N-[(3S)-5-Cyano-3-(2-ethoxy-3-pyridyl)-2-oxo-1-(p-tolylsulfonyl)indolin-3-yl]-2-(2-morpholinoethyl)-2,6-diazaspiro[3.3]heptane-6-carboxamide; 2,2,2-trifluoroacetic acid] | 1 to 10 | ++ (25-75)
10 | CCOc1ncccc1[C@]1(NC(=O)N2CC3(C2)CN(C2CCN(C(C)C)CC2)C3)C(=O)N(S(=O)(=O)c2ccc(C#N)cc2)c2ccc(C#N)cc21 [Example 24, N-[(3S)-5-cyano-1-(4-cyanophenyl)sulfonyl-3-(2-ethoxy-3-pyridyl)-2-oxo-indolin-3-yl]-2-(1-isopropyl-4-piperidyl)-2,6-diazaspiro[3.3]heptane-6-carboxamide] | 10 to 100 | +++ (>75)
11 | CCOc1ncccc1[C@]1(NC(=O)N2CC3(C2)CN(C2CCN(C)CC2)C3)C(=O)N(S(=O)(=O)c2ccc(OC)cc2)c2ccc(C#N)cc21 [Example 33, N-[(3S)-5-Cyano-3-(2-ethoxy-3-pyridyl)-1-(4-methoxyphenyl)sulfonyl-2-oxo-indolin-3-yl]-2-(1-methyl-4-piperidyl)-2,6-diazaspiro[3.3]heptane-6-carboxamide] | 10 to 100 | ++ (25-75)
12 | CCOc1ncccc1C1(CC(=O)N2CC3(CN(CCN4CCOCC4)C3)C2)C(=O)N(S(=O)(=O)c2ccc(OC)cc2)c2ccc(C#N)cc21 (single isomer, unassigned) [Example 20A, 3-(2-Ethoxy-3-pyridyl)-1-(4-methoxyphenyl)sulfonyl-3-[2-[2-(2-morpholinoethyl)-2,6-diazaspiro[3.3]heptan-6-yl]-2-oxo-ethyl]-2-oxo-indoline-5-carbonitrile] | 1 to 10 | ++ (25-75)
13 | CCOc1ncccc1[C@]1(NC(=O)N2CC3(CN(CCN4CCCCC4)C3)C2)C(=O)N(S(=O)(=O)c2ccc(OC)cc2)c2ccc(C#N)cc21 [Example 13, N-[(3S)-5-Cyano-3-(2-ethoxy-3-pyridyl)-1-(4-methoxyphenyl)sulfonyl-2-oxo-indolin-3-yl]-2-[2-(1-piperidyl)ethyl]-2,6-diazaspiro[3.3]heptane-6-carboxamide] | < 1 | ++ (25-75)
14 | CCOc1ncccc1[C@]1(NC(=O)N2CC3(CN(CCN4CCOCC4)C3)C2)C(=O)N(S(=O)(=O)c2ccc(OC)cc2F)c2ccc(C#N)cc21.O=C(O)C(F)(F)F [Example 6, N-[(3S)-5-Cyano-3-(2-ethoxy-3-pyridyl)-1-(2-fluoro-4-methoxy-phenyl)sulfonyl-2-oxo-indolin-3-yl]-2-(2-morpholinoethyl)-2,6-diazaspiro[3.3]heptane-6-carboxamide; 2,2,2-trifluoroacetic acid] | 1 to 10 | ++ (25-75)
15 | CCOc1ncccc1C1(NC(=O)N2CC3(CNC3)C2)C(=O)N(S(=O)(=O)c2ccc(OC)cc2OC)c2ccc(C#N)cc21.O=C(O)C(F)(F)F (stereo not shown) [Example 58, N-(5-Cyano-1-(2,4-dimethoxyphenylsulfonyl)-3-(2-ethoxypyridin-3-yl)-2-oxoindolin-3-yl)-2,6-diazaspiro[3.3]heptane-2-carboxamide 2,2,2-trifluoroacetate] | 10 to 100 | ++ (25-75)
16 | CCOc1ncccc1[C@]1(NC(=O)C2CC3(C2)CN(C2CCN(C(C)C)CC2)C3)C(=O)N(S(=O)(=O)c2ccc(OC)cc2)c2ccc(C#N)cc21 [Example 45, N-[(3S)-5-Cyano-3-(2-ethoxy-3-pyridyl)-1-(4-methoxyphenyl)sulfonyl-2-oxo-indolin-3-yl]-6-(1-isopropyl-4-piperidyl)-6-azaspiro[3.3]heptane-2-carboxamide] | 10 to 100 | + (10-<25)
17 | CCOc1ncccc1[C@]1(NC(=O)N2CC3(CN(CCN4CCOCC4)C3)C2)C(=O)N(S(=O)(=O)c2ccc(OC)cc2OC)c2ccc(C#N)cc21 [Example 7, N-[(3S)-5-Cyano-1-(2,4-dimethoxyphenyl)sulfonyl-3-(2-ethoxy-3-pyridyl)-2-oxo-indolin-3-yl]-2-(2-morpholinoethyl)-2,6-diazaspiro[3.3]heptane-6-carboxamide] | 1 to 10 | ++ (25-75)
18 | CCOc1ncccc1[C@]1(NC(=O)N2CC3(C2)CN(C2CCN(C(C)C)CC2)C3)C(=O)N(S(=O)(=O)c2ccc(C)cc2)c2ccc(C#N)cc21 [Example 25, N-[(3S)-5-Cyano-3-(2-ethoxy-3-pyridyl)-2-oxo-1-(p-tolylsulfonyl)indolin-3-yl]-2-(1-isopropyl-4-piperidyl)-2,6-diazaspiro[3.3]heptane-6-carboxamide] | 10 to 100 | ++ (25-75)
19 | CCOc1ncccc1C1(CC(=O)N2CC3(CN(CCN4CCOCC4)C3)C2)C(=O)N(S(=O)(=O)c2ccc(OC)cc2)c2ccc(C#N)cc21 (racemic) [Example 20, 3-(2-Ethoxy-3-pyridyl)-1-(4-methoxyphenyl)sulfonyl-3-[2-[2-(2-morpholinoethyl)-2,6-diazaspiro[3.3]heptan-6-yl]-2-oxo-ethyl]-2-oxo-indoline-5-carbonitrile] | 1 to 10 | ++ (25-75)
20 | CCOc1ncccc1[C@]1(NC(=O)N2CC3(C2)CN(C2CCN(C(C)C)CC2)C3)C(=O)N(S(=O)(=O)c2ccc(OC)cc2)c2ccc(C#N)cc21 [Example 29, N-[(3S)-5-Cyano-3-(2-ethoxy-3-pyridyl)-1-(4-methoxyphenyl)sulfonyl-2-oxo-indolin-3-yl]-2-(1-isopropyl-4-piperidyl)-2,6-diazaspiro[3.3]heptane-6-carboxamide] | 1 to 10 | +++ (>75)
